Laboratory results as given in PMC3532936 (Journal of biomolecular screening, 2011).
Where “and” joins values, the source holds several entries; their conditions need not be identical. Identical values can stand only once. Like-named read-outs stand apart in the source and are kept apart here.

Assays:
YF CE [1] = target: T1, YF CE (Yellow fever virus, UniProt P03314); format: binding, yellow fever virus (strain 17D)
DEN2 CE = target: T2, DEN2 CE (Dengue virus type 2, UniProt P29990); format: binding, dengue virus 2 (strain 16681)
T2 sequence (P29990 2493-2755 limits assumed): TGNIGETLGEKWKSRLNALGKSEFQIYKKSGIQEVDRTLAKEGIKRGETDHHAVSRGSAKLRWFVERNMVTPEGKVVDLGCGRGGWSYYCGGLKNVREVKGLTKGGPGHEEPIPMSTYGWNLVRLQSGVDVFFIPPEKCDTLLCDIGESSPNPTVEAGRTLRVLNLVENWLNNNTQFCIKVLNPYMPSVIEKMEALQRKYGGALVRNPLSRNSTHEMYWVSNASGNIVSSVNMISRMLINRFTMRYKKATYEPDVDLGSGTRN

YF CE [2] = target: T1, YF CE
DEN CE = target: T3, DEN CE (Dengue virus type 2, UniProt P29990); format: biochemical
T3 sequence (P29990 2493-2755 limits assumed): T2 sequence (P29990 2493-2755 limits assumed)

CE protein (YF or DEN) = conditions: read-out: Ki for the displacement of GTP–BODIPY; competition assay; cited from earlier work

T1 sequence (P03314 2507-2771 limits assumed): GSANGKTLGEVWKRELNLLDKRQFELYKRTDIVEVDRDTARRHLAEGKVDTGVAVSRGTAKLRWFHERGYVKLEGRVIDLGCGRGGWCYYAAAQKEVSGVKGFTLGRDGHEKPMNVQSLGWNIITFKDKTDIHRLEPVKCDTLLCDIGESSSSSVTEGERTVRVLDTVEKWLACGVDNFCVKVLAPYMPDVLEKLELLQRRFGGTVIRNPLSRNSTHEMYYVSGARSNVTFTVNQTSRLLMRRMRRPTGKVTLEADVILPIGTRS

Row | SMILES | Percent Inhibition HTS (YF CE [1]) [%] | Ki (DEN2 CE; read-out: apparent Ki, FP, DEN) [µM] | Ki (DEN2 CE; read-out: apparent Ki, TF, DEN) [µM] | Ki (YF CE [2]; read-out: apparent Ki, FP, YF) [µM] | Ki (YF CE [2]; read-out: apparent Ki, TF, YF) [µM] | inhibition of guanylation (in words) (DEN CE) | IC50 (DEN CE; read-out: Guanylation IC50 DEN) [µM] | Ki (CE protein (YF or DEN)) [µM] | average mP value of inhibition (YF CE [1])
1 | COC(=O)[n+]1ccc(N2CCOCC2)cc1 [BAS01531218] | 12 | 4.8 ± 1.5 | 2.6 ± 0.5 | 4.9 ± 1 | 6.2 ± 1.4 |  |  |  | 
2 | Cc1ccc(C)n1C(Cc1c[nH]c2ccccc12)C(=O)O (stereo not drawn) [BAS 01211690] | 23 | 10.1 ± 1.3 | 9.1 ± 2.5 | 5.8 ± 0.5 | 5.8 ± 1.7 | weaker inhibition of guanylation | 78.9 ± 37.8 |  | 
3 | Nc1ncnc2c1ncn2[C@@H]1O[C@H](COP(=O)(O)OP(=O)(O)OP(=O)(O)O)[C@@H](O)[C@H]1O [adenosine triphosphate (ATP), adenosine triphosphate] |  |  |  |  |  |  |  | 350 | 
4 | Nc1nc2c(ncn2[C@@H]2O[C@H](COP(=O)(O)OP(=O)(O)OP(=O)(O)O)[C@@H](O)[C@H]2O)c(=O)[nH]1 [GTP, guanosine triphosphate, reference compound] |  |  |  |  |  |  |  | 0.04 | 42.4 ± 5.19 mP and 81.8 ± 6.09 mP
